Measured values reported in US6436977B1, “Dosing regimens for lasofoxifene” (Pfizer Inc., priority 1999, dated 2002).
Where two headings read alike, the source gives them in different places.

Experiment: Plasma levels of lasofoxifene after a single oral dose in healthy postmenopausal women (LC-MS-MS)
Assay type: in vivo, human
Settings: for concentration at 1 h: 1 hour after dosing; for concentration at 2 h: 2 hours after dosing; for concentration at 4 h: 4 hours after dosing; for concentration at 8 h: 8 hours after dosing; for concentration at 12 h: 12 hours after dosing; for concentration at 24 h: 24 hours after dosing; for concentration at 48 h: 48 hours after dosing; for concentration at 72 h: 72 hours after dosing; for concentration at 120 h: 120 hours after dosing; for concentration at 0.5 h: .5 hours after dosing
Experimental: A dose of 0.8 mg of lasofoxifene was administered to 12 healthy, postmenopausal women and blood samples were analyzed periodically as shown in Table 1.
A 1.0 ml sample of human plasma was analyzed for lasofoxifene according to CEDRA's Procedure TM-234 (CEDRA's address). Internal standard used for this procedure was a pentadeuterated lasofoxifene. The plasma sample containing lasofoxifene and the internal standard was extracted with MTBE. Following centrifugation, the organic layer was transferred to another tube and evaporated. An aliquot of the reconstituted sample extract was then injected onto a SCIEX API^III-PLUS LC-MS-MS instrument equipped with a short ion exchange HPLC column. Peak areas of the m/z 414→97.9 daughter ion of lasofoxifene were measured against the peak areas of the mlz 419→97.9 daughter of the internal standard. Quantitation was performed using a 1/x weighted least squares regression line generated from spiked plasma calibration samples.
The procedure of Example 1 was repeated with a dose of 10-mg lasofoxifene administered to 8 healthy postmenopausal women. Plasma levels for lasofoxifene are shown for 672 hours in Table 2.

[1] = female, human, plasma, single oral 10 mg dose, healthy post menopausal women, read-out: Mean plasma concentration, na Lasofoxifene per ml plasma
[2] = female, human, plasma, single oral dose 0.8 mg, healthy post menopausal women, read-out: Mean plasma concentration, ng Lasofoxifene per ml plasma

Oc1ccc2c(c1)CC[C@H](c1ccccc1)[C@@H]2c1ccc(OCCN2CCCC2)cc1 [lasofoxifene, (−)-cis-6-phenyl-5-[4-(2-pyrrolidin-1-yl-ethoxy)-phenyl]-5,6,7,8-tetrahydronaphthalen-2-ol, D-tartrate]
duration of therapeutically effective dose (level) (doses from 10 to 20 mg, see Table 2): up to 30 days
concentration at 168 h (female, human, plasma, oral, single dose of 0.8 mg, healthy women, after 168 hours (1 week), read-out: blood level (concentration)): ~0.3 ng/mL
concentration at 0 h (female, human, plasma, single oral 10 mg dose, healthy post menopausal women, 0 hours after dosing, read-out: Mean plasma concentration, na Lasofoxifene per ml plasma): 0 ng/mL
concentration at 1 h [1]: 4.42 ng/mL
concentration at 2 h [1]: 5.64 ng/mL
concentration at 4 h [1]: 8.46 ng/mL
concentration at 8 h [1]: 10.4 ng/mL
concentration at 12 h [1]: 10.2 ng/mL
concentration at 24 h [1]: 8.35 ng/mL
concentration at 48 h [1]: 7.16 ng/mL
concentration at 72 h [1]: 5.97 ng/mL
concentration at 120 h [1]: 4.56 ng/mL
concentration at 168 h (female, human, plasma, single oral 10 mg dose, healthy post menopausal women, 168 hours after dosing, read-out: Mean plasma concentration, na Lasofoxifene per ml plasma): 3.74 ng/mL
concentration at 216 h (female, human, plasma, single oral 10 mg dose, healthy post menopausal women, 216 hours after dosing, read-out: Mean plasma concentration, na Lasofoxifene per ml plasma): 2.88 ng/mL
concentration at 264 h (female, human, plasma, single oral 10 mg dose, healthy post menopausal women, 264 hours after dosing, read-out: Mean plasma concentration, na Lasofoxifene per ml plasma): 2.27 ng/mL
concentration at 336 h (female, human, plasma, single oral 10 mg dose, healthy post menopausal women, 336 hours after dosing, read-out: Mean plasma concentration, na Lasofoxifene per ml plasma): 1.6 ng/mL
concentration at 408 h (female, human, plasma, single oral 10 mg dose, healthy post menopausal women, 408 hours after dosing, read-out: Mean plasma concentration, na Lasofoxifene per ml plasma): 1.05 ng/mL
concentration at 480 h (female, human, plasma, single oral 10 mg dose, healthy post menopausal women, 480 hours after dosing, read-out: Mean plasma concentration, na Lasofoxifene per ml plasma): 0.75 ng/mL
concentration at 576 h (female, human, plasma, single oral 10 mg dose, healthy post menopausal women, 576 hours after dosing, read-out: Mean plasma concentration, na Lasofoxifene per ml plasma): 0.5 ng/mL
concentration at 672 h (female, human, plasma, single oral 10 mg dose, healthy post menopausal women, 672 hours after dosing, read-out: Mean plasma concentration, na Lasofoxifene per ml plasma): 0.31 ng/mL
concentration at 0.5 h [1]: 2.33 ng/mL
concentration at 1 h [2]: 0.32 ng/mL
concentration at 2 h [2]: 0.37 ng/mL
concentration at 4 h [2]: 0.46 ng/mL
concentration at 8 h [2]: 0.72 ng/mL
concentration at 12 h [2]: 0.73 ng/mL
concentration at 24 h [2]: 0.64 ng/mL
concentration at 48 h [2]: 0.56 ng/mL
concentration at 72 h [2]: 0.49 ng/mL
concentration at 120 h [2]: 0.4 ng/mL
concentration at 168 h (female, human, plasma, single oral dose 0.8 mg, healthy post menopausal women, 168 hours after dosing, read-out: Mean plasma concentration, ng Lasofoxifene per ml plasma): 0.34 ng/mL
concentration at 0.5 h [2]: 0.13 ng/mL
initial blood level (single dose of 0.8 mg, healthy women, within a few hours): 0.7 ng/mL
